Experimental data from PMC11101637, “Bioinformatics leading to conveniently accessible, helix enforcing, bicyclic ASX motif mimics (BAMMs)” (Nature Communications, 2024).

Tests used:
cyclin E [1] = biological target: T1, cyclin E (Homo sapiens, UniProt P24864); test: Direct FP assay to measure Kd of fluorescent peptides; assay type: binding; conditions: FITC-labelled peptide 20 nM final, cyclin E up to 2.4 μM final, PBS, 3 h, n=1 independent experiment in duplicate wells; not saturated, estimate value; read-out: Kd, fluorescence polarization
T1 construct: purchased Sino Biological
T1 sequence (P24864 whole entry): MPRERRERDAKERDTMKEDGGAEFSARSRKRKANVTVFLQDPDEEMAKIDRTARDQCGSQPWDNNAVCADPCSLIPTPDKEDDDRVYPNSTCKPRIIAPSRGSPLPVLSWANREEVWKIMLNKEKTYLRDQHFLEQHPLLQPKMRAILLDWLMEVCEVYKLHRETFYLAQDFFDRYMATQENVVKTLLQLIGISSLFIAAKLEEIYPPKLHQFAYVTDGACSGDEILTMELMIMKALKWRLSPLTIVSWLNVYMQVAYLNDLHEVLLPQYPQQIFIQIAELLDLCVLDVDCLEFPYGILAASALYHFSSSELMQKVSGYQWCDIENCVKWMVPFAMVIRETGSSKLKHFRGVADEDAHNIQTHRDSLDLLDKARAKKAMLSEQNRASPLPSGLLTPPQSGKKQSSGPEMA
Procedure: Direct FP assay to measure Kd of fluorescent peptides
Polarized fluorescence intensities were measured on Synergy H4 plate reader with excitation and emission wavelengths of 485 and 535 nm with 20 nm band widths, respectively. The optics position is Top 510 nm with Gain set as 100. Read Speed is normal and read height is 7 mm. Cyclin proteins were bought from Sino Biological and after reconstitution it should be used immediately. […] To each well, 10 μL 40 nM of fluorescent peptides in PBS was added. Various concentrations of cyclin E (from Sino Biological, Inc.) were prepared (0.16–4.8 μM) and 10 μL were added to each well. The plate was shaken in the dark for 3 h. Wells containing only the peptide and PBS buffer were used as a control. Each mixture was prepared in duplicates.

cyclin E [2] = biological target: T1, cyclin E; test: Trp fluorescence quenching assay; assay type: binding; conditions: 0.8 μM cyclin E in PBS pH 7.4, 25 °C, ex 295 nm, em 338 nm; n = 2 independent experiments, ± S.D.
Procedure: Trp fluorescence quenching assay
Fluorescence quenching of the single tryptophan in cyclin E was measured by using a Cary Eclipse (Varian) equipped with a front-face fluorescence accessory at 25 °C, by using 10-nm excitation and 10 nm emission bandwidths. The excitation wavelength was 295 nm and the emission spectra were measured between 315 and 395 nm. Titrations were performed in a 0.7-ml quartz fluorescence cuvette containing 0.5 mL 0.8 μM protein in PBS buffer, pH 7.4, and by the successive addition of 0.5–1 μL of compound stock solutions. After each addition, the cuvette was shaken to enable fast mixture, and there were 10 mins interval between two additions to ensure equilibrium of the mixture. The measurements were repeated at least three times at each concentration. Fluorescence intensities at 338 nm at increasing concentrations of the quencher were collected. Dissociation equilibrium constant (Kd) values were determined by fitting data to the equation below[42],[43].

circular dichroism = conditions: PBS; pH 7.4; 25 °C; 5-30 uM
[3] = CD spectroscopy: percent helicity and ellipticity ratio 222/208 nm; assay type: physicochemical; conditions: for % helicity: 5-30 μM peptide, three scans averaged, [θ]222/[θ]max
Procedure: Circular dichroism (CD) experiments
Concentrations of the stock solution were determined by […] absorption of Trp or 275 nm absorption of Tyr (and TMB, if present in peptides). Each sample was dissolved in 1x PBS (pH 7.4), 10% TFE/PBS or 20% TFE/PBS with the final concentration between 5 to 30 μM. CD spectra were acquired using circular dichroism spectrometer (Chirascan) equipped with a temperature controller using 1 mm cell at a scan speed of 0.5 nm/sec at indicated temperature. Each sample was scanned three times and the averaged spectrum was smoothed.
Calculation of percent helicity
For simplicity, ‘helicity’ or ‘helical’ in the following text all refers to α-type. For each peptide, mean residue ellipticities ([θ]/(c*n), c = concentration of the peptide, n = number of amino acids in the peptide) were used to calculate % helicity, which is an empirical indicator of peptide helicity. […] (n = number of amino acids in the peptide, T = 25.0 °C).

| Kd (cyclin E [1]) [µM] | Kd (cyclin E [2]) [µM] | ellipticity ratio 222/208 nm ([3]; CD in 10% TFE/PBS, 25 °C) | % helicity ([3]; CD in 10% TFE/PBS, 25 °C) [%] | % helicity ([3]; CD in PBS buffer (pH 7.4, 10 mM), 25.0 °C, 1 mm cell) [%] | ellipticity ratio 222/208 nm ([3]; CD in PBS, 25 °C) | Compound | helicity (circular dichroism) [%] |
| --- | --- | --- | --- | --- | --- | --- | --- |
| 4.6 ± 2.4 | – | – | – | – | – | CC[C@H](C)[C@H](NC(=O)[C@@H]1CSCc2cc3cc(c2)CSC[C@H](NC(=O)[C@H](CO)NC(=O)[C@H](C)NC(=O)[C@H](CC(=O)O)NC(=O)[C@@H](NC(=O)CCNC(=O)CCNC(=O)CCNC(=S)Nc2ccc4c(c2)C(=O)OC42c4ccc(O)cc4Oc4cc(O)ccc42)CSC3)C(=O)N1)C(=O)N[C@@H](CCCNC(=N)N)C(=O)N[C@@H](CCC(=O)O)C(=O)N[C@H](C(=O)N[C@@H](CO)C(=O)N[C@@H](CC(C)C)C(=O)N[C@@H](CC(C)C)C(=O)N[C@@H](CCCCN)C(=O)N[C@@H](CCC(=O)O)C(=O)N[C@@H](Cc1ccc(O)cc1)C(N)=O)[C@@H](C)CC [3Bf] | – |
| – | 8.6 ± 2.8 | 0.34 | 20 | 11 | 0.18 | Ac-ASTAIREISLLKEY-NH2 [3l] | 11 |
